In PubChem BioAssay (NCI):
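Assay format: 96-well plates, 48-hour exposure. Here, GI50 denotes the concentration required for 50% inhibition of growth. At the TGI there is no net growth.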

Assays:
Experiment in all cases: inhibition of tumour cell growth, NCI panel, 48 h
786-0 renal = test system: 786-0 renal
A498 renal = test system: A498 renal
A549 NSCLC = test system: A549 NSCLC
ACHN renal = test system: ACHN renal
BT-549 breast = test system: BT-549 breast
CAKI-1 renal = test system: CAKI-1 renal
CCRF-CEM leukemia = test system: CCRF-CEM leukemia
COLO 205 colon = test system: COLO 205 colon
DU-145 prostate = test system: DU-145 prostate
EKVX NSCLC = test system: EKVX NSCLC
HCC-2998 colon = test system: HCC-2998 colon
HCT-116 colon = test system: HCT-116 colon
HCT-15 colon = test system: HCT-15 colon
HL-60(TB) leukemia = test system: HL-60(TB) leukemia
HOP-62 NSCLC = test system: HOP-62 NSCLC
HOP-92 NSCLC = test system: HOP-92 NSCLC
HS 578T breast = test system: HS 578T breast
HT29 colon = test system: HT29 colon
IGROV1 ovarian = test system: IGROV1 ovarian
K-562 leukemia = test system: K-562 leukemia
KM12 colon = test system: KM12 colon
LOX IMVI melanoma = test system: LOX IMVI melanoma
M14 melanoma = test system: M14 melanoma
MALME-3M melanoma = test system: MALME-3M melanoma
MCF7 breast = test system: MCF7 breast
MDA-MB-231 breast = test system: MDA-MB-231 breast
MDA-MB-435 = test system: MDA-MB-435
MOLT-4 leukemia = test system: MOLT-4 leukemia
NCI-H23 lung = test system: NCI-H23 lung
NCI-H460 lung = test system: NCI-H460 lung
NCI-H522 lung = test system: NCI-H522 lung
NCI/ADR-RES ovarian = test system: NCI/ADR-RES ovarian
OVCAR-3 ovarian = test system: OVCAR-3 ovarian
OVCAR-5 ovarian = test system: OVCAR-5 ovarian
OVCAR-8 ovarian = test system: OVCAR-8 ovarian
PC-3 prostate = test system: PC-3 prostate
RPMI-8226 leukemia = test system: RPMI-8226 leukemia
RXF 393 renal = test system: RXF 393 renal
SF-268 CNS = test system: SF-268 CNS
SF-295 CNS = test system: SF-295 CNS
SF-539 CNS = test system: SF-539 CNS
SK-MEL-2 melanoma = test system: SK-MEL-2 melanoma
SK-MEL-28 melanoma = test system: SK-MEL-28 melanoma
SK-MEL-5 melanoma = test system: SK-MEL-5 melanoma
SK-OV-3 ovarian = test system: SK-OV-3 ovarian
SNB-19 CNS = test system: SNB-19 CNS
SR leukemia = test system: SR leukemia
SW-620 colon = test system: SW-620 colon
T-47D breast = test system: T-47D breast
TK-10 renal = test system: TK-10 renal
U251 CNS = test system: U251 CNS
UACC-257 melanoma = test system: UACC-257 melanoma
UACC-62 melanoma = test system: UACC-62 melanoma
UO-31 renal = test system: UO-31 renal
NCI-H226 lung = test system: NCI-H226 lung
OVCAR-4 ovarian = test system: OVCAR-4 ovarian
SN12C renal = test system: SN12C renal
SNB-75 CNS = test system: SNB-75 CNS

## COc1cc(Nc2nc3ccccc3n3cccc23)cc(OC)c1OC
786-0 renal
  TGI: > 100 µM
A498 renal
  TGI: > 100 µM
A549 NSCLC
  TGI: > 100 µM
ACHN renal
  TGI: > 100 µM
BT-549 breast
  TGI: > 100 µM
CAKI-1 renal
  TGI: > 100 µM
CCRF-CEM leukemia
  TGI: > 100 µM
COLO 205 colon
  TGI: > 100 µM
DU-145 prostate
  TGI: > 100 µM
EKVX NSCLC
  TGI: > 100 µM
HCC-2998 colon
  TGI: > 100 µM
HCT-116 colon
  TGI: > 100 µM
HCT-15 colon
  TGI: > 100 µM
HL-60(TB) leukemia
  TGI: > 100 µM
HOP-62 NSCLC
  TGI: 72.9 µM
HOP-92 NSCLC
  TGI: > 100 µM
HS 578T breast
  TGI: > 100 µM
HT29 colon
  TGI: > 100 µM
IGROV1 ovarian
  TGI: > 100 µM
K-562 leukemia
  TGI: > 100 µM
KM12 colon
  TGI: > 100 µM
LOX IMVI melanoma
  TGI: > 100 µM
M14 melanoma
  TGI: > 100 µM
MALME-3M melanoma
  TGI: > 100 µM
MCF7 breast
  TGI: > 100 µM
MDA-MB-231 breast
  TGI: > 100 µM
MDA-MB-435
  TGI: > 100 µM
MOLT-4 leukemia
  TGI: > 100 µM
NCI-H23 lung
  TGI: > 100 µM
NCI-H460 lung
  TGI: > 100 µM
NCI-H522 lung
  TGI: > 100 µM
NCI/ADR-RES ovarian
  TGI: > 100 µM
OVCAR-3 ovarian
  TGI: > 100 µM
OVCAR-5 ovarian
  TGI: > 100 µM
OVCAR-8 ovarian
  TGI: > 100 µM
PC-3 prostate
  TGI: > 100 µM
RPMI-8226 leukemia
  TGI: > 100 µM
RXF 393 renal
  TGI: 99.6 µM
SF-268 CNS
  TGI: > 100 µM
SF-295 CNS
  TGI: > 100 µM
SF-539 CNS
  TGI: > 100 µM
SK-MEL-2 melanoma
  TGI: > 100 µM
SK-MEL-28 melanoma
  TGI: > 100 µM
SK-MEL-5 melanoma
  TGI: > 100 µM
SK-OV-3 ovarian
  TGI: > 100 µM
SNB-19 CNS
  TGI: > 100 µM
SR leukemia
  TGI: > 100 µM
SW-620 colon
  TGI: > 100 µM
T-47D breast
  TGI: 0.821 µM
TK-10 renal
  TGI: > 100 µM
U251 CNS
  TGI: > 100 µM
UACC-257 melanoma
  TGI: > 100 µM
UACC-62 melanoma
  TGI: > 100 µM
UO-31 renal
  TGI: > 100 µM

## O=c1c2c([nH]c3ccccc13)CCCC2
786-0 renal
  GI50: > 100 µM
  TGI: > 100 µM
A498 renal
  GI50: 1.74 µM
  TGI: 55.8 µM
A549 NSCLC
  GI50: > 100 µM
  TGI: > 100 µM
ACHN renal
  GI50: > 100 µM
  TGI: > 100 µM
BT-549 breast
  GI50: > 100 µM
  TGI: > 100 µM
CAKI-1 renal
  GI50: > 100 µM
  TGI: > 100 µM
CCRF-CEM leukemia
  GI50: > 100 µM
  TGI: > 100 µM
COLO 205 colon
  GI50: > 100 µM
  TGI: > 100 µM
DU-145 prostate
  GI50: > 100 µM
  TGI: > 100 µM
HCC-2998 colon
  GI50: > 100 µM
  TGI: > 100 µM
HCT-116 colon
  GI50: > 100 µM
  TGI: > 100 µM
HCT-15 colon
  GI50: > 100 µM
  TGI: > 100 µM
HL-60(TB) leukemia
  GI50: > 100 µM
  TGI: > 100 µM
HOP-62 NSCLC
  GI50: > 100 µM
  TGI: > 100 µM
HOP-92 NSCLC
  GI50: 78.4 µM
  TGI: > 100 µM
HS 578T breast
  GI50: > 100 µM
  TGI: > 100 µM
HT29 colon
  GI50: > 100 µM
  TGI: > 100 µM
IGROV1 ovarian
  GI50: > 100 µM
  TGI: > 100 µM
K-562 leukemia
  GI50: > 100 µM
  TGI: > 100 µM
KM12 colon
  GI50: > 100 µM
  TGI: > 100 µM
LOX IMVI melanoma
  GI50: > 100 µM
  TGI: > 100 µM
MALME-3M melanoma
  GI50: > 100 µM
  TGI: > 100 µM
MCF7 breast
  GI50: > 100 µM
  TGI: > 100 µM
MDA-MB-231 breast
  GI50: > 100 µM
  TGI: > 100 µM
MDA-MB-435
  GI50: > 100 µM
  TGI: > 100 µM
MOLT-4 leukemia
  GI50: > 100 µM
  TGI: > 100 µM
NCI-H226 lung
  GI50: > 100 µM
  TGI: > 100 µM
NCI-H23 lung
  GI50: > 100 µM
  TGI: > 100 µM
NCI-H460 lung
  GI50: > 100 µM
  TGI: > 100 µM
NCI-H522 lung
  GI50: > 100 µM
  TGI: > 100 µM
NCI/ADR-RES ovarian
  GI50: > 100 µM
  TGI: > 100 µM
OVCAR-3 ovarian
  GI50: > 100 µM
  TGI: > 100 µM
OVCAR-4 ovarian
  GI50: 37 µM
  TGI: > 100 µM
OVCAR-5 ovarian
  GI50: > 100 µM
  TGI: > 100 µM
OVCAR-8 ovarian
  GI50: > 100 µM
  TGI: > 100 µM
PC-3 prostate
  GI50: > 100 µM
  TGI: > 100 µM
RPMI-8226 leukemia
  GI50: 81.5 µM
  TGI: > 100 µM
RXF 393 renal
  GI50: > 100 µM
  TGI: > 100 µM
SF-268 CNS
  GI50: > 100 µM
  TGI: > 100 µM
SF-295 CNS
  GI50: > 100 µM
  TGI: > 100 µM
SF-539 CNS
  GI50: > 100 µM
  TGI: > 100 µM
SK-MEL-2 melanoma
  GI50: 60.4 µM
  TGI: > 100 µM
SK-MEL-28 melanoma
  GI50: > 100 µM
  TGI: > 100 µM
SK-MEL-5 melanoma
  GI50: 45.3 µM
  TGI: > 100 µM
SK-OV-3 ovarian
  GI50: > 100 µM
  TGI: > 100 µM
SN12C renal
  GI50: > 100 µM
  TGI: > 100 µM
SNB-19 CNS
  GI50: > 100 µM
  TGI: > 100 µM
SNB-75 CNS
  GI50: > 100 µM
  TGI: > 100 µM
SR leukemia
  GI50: > 100 µM
  TGI: > 100 µM
SW-620 colon
  GI50: > 100 µM
  TGI: > 100 µM
T-47D breast
  GI50: > 100 µM
  TGI: > 100 µM
TK-10 renal
  GI50: > 100 µM
  TGI: > 100 µM
U251 CNS
  GI50: > 100 µM
  TGI: > 100 µM
UACC-257 melanoma
  GI50: > 100 µM
  TGI: > 100 µM
UACC-62 melanoma
  GI50: > 100 µM
  TGI: > 100 µM
UO-31 renal
  GI50: 49.7 µM
  TGI: > 100 µM
